Experimental data as given in patent US9040524B2, “Antifungal 5,6-dihydro-4H-pyrrolo[1,2-a][1,4]-benzodiazepines and 6H-pyrrolo[1,2-a][1,4]benzodiazepines substituted with bicycle benzene derivatives” (JANSSEN PHARMACEUTICA NV, priority 2010, dated 2015).

Columns and labels:
Assay type in all cases: cell-based
Candida parapsilosis = test: Antifungal activity in vitro, resazurin growth inhibition screen: Candida parapsilosis; conditions: Candida parapsilosis B66126
Method: (§1) The standard susceptibility screen was performed in 96-well plates (U-bottom, Greiner Bio-One). Serial dilutions (2-fold or 4-fold) of 20 mM compound stock solutions were made in 100% DMSO, followed by an intermediate dilution step in water. These serial dilutions (10 μl) were then spotted onto test-plates that could be stored in the dark at 4° C. for a maximum period of 2 weeks. An adequate broad dose-range was included with 64 μM as the highest in-test concentration. […] The different fungal species/isolates (Table 3a) were cryopreserved and 1/1000 diluted in medium just prior to use. A standard inoculum of 200 μl containing 10^3 colony-forming unit (cfu) was then added to each well. A positive control (100% growth=fungal culture without antifungal) and a negative control (0% growth=RPMI-MOPS medium) were included on each plate.

Trichophyton rubrum = test: Antifungal activity in vitro, resazurin growth inhibition screen: Trichophyton rubrum; conditions: Trichophyton rubrum B68183
Method: as §1

Aspergillus fumigatus = test: Antifungal activity in vitro, resazurin growth inhibition screen: Aspergillus fumigatus; conditions: Aspergillus fumigatus B42928
Method: as §1

Sporothrix schenkii = test: Antifungal activity in vitro, resazurin growth inhibition screen: Sporothrix schenkii; conditions: Sporothrix schenkii B62482
Method: as §1

Cryptococcus neoformans = test: Antifungal activity in vitro, resazurin growth inhibition screen: Cryptococcus neoformans; conditions: Cryptococcus neoformans B66663
Method: as §1

Microsporum canis = test: Antifungal activity in vitro, resazurin growth inhibition screen: Microsporum canis; conditions: Microsporum canis B68128
Method: as §1

[1] = system: Trichophyton mentagrophytes; test: Antifungal activity in vitro, resazurin growth inhibition screen: Trichophyton mentagrophytes; conditions: Trichophyton mentagrophytes B70554
Method: as §1

SMILES	Inf. D pIC50 (Candida parapsilosis)	Inf. C pIC50 (Trichophyton rubrum)	Inf. E pIC50 (Aspergillus fumigatus)	Inf. A pIC50 (Sporothrix schenkii)	Inf. F pIC50 (Cryptococcus neoformans)	Inf. B pIC50 (Microsporum canis)	Inf. G pIC50 [1]	IC50 (Candida parapsilosis; Lodderomyces parapsilosis, read-out: Inf. D pIC50 (converted)) [µM]	IC50 (Trichophyton rubrum; read-out: Inf. C pIC50 (converted)) [µM]	IC50 (Aspergillus fumigatus; read-out: Inf. E pIC50 (converted)) [µM]	IC50 (Sporothrix schenkii; read-out: Inf. A pIC50 (converted)) [µM]	IC50 (Cryptococcus neoformans; read-out: Inf. F pIC50 (converted)) [µM]	IC50 (Microsporum canis; read-out: Inf. B pIC50 (converted)) [µM]	IC50 ([1]; read-out: Inf. G pIC50 (converted)) [µM]
Cl.Fc1cccc2c1CNC(c1ccc3c(c1)CCOC3)c1cccn1-2 (stereo not shown) [Compound 29, 4-(3,4-dihydro-1H-2-benzopyran-6-yl)-7-fluoro-5,6-dihydro-4H-pyrrolo[1,2-a]-[1,4]benzodiazepine .HCl]	<4.19	4.44	<4.19	<4.19	<4.19	<4.19	<4.19	–	–	–	–	–	–	–
Cl.Clc1ccc2c(c1Cl)CNC(c1ccc3c(c1)CCO3)c1cccn1-2 (stereo not shown) [Compound 30, 7,8-dichloro-4-(2,3-dihydro-5-benzofuranyl)-5,6-dihydro-4H-pyrrolo[1,2-a][1,4]-benzodiazepine .HCl]	<4.19	5.22	<4.19	<4.19	5.22	6.00	5.00	–	–	–	–	–	–	–
Cl.Clc1cc(Cl)c2c(c1)-n1cccc1C(c1ccc3c(c1)CCO3)NC2 (stereo not shown) [Compound 31, 7,9-dichloro-4-(2,3-dihydro-5-benzofuranyl)-5,6-dihydro-4H-pyrrolo[1,2-a][1,4]-benzodiazepine .HCl]	<4.19	6.00	<4.19	<4.19	<4.19	5.52	5.80	–	–	–	–	–	–	–
Cl.Clc1ccc(Cl)c2c1CNC(c1ccc3c(c1)CCO3)c1cccn1-2 (stereo not shown) [Compound 32, 7,10-dichloro-4-(2,3-dihydro-5-benzofuranyl)-5,6-dihydro-4H-pyrrolo[1,2-a][1,4]-benzodiazepine .HCl]	<4.19	5.22	<4.19	<4.19	4.64	5.52	4.92	–	–	–	–	–	–	–
Cl.Clc1ccc(Cl)c2c1CNC(c1ccc3c(c1)OCC3)c1cccn1-2 (stereo not shown) [Compound 33, 7,10-dichloro-4-(2,3-dihydro-6-benzofuranyl)-5,6-dihydro-4H-pyrrolo[1,2-a][1,4]-benzodiazepine .HCl]	<4.19	5.15	<4.19	<4.19	<4.19	5.52	<4.19	–	–	–	–	–	–	–
Cl.Clc1cc(Cl)c2c(c1)CNC(c1ccc3c(c1)CCO3)c1cccn1-2 (stereo not shown) [Compound 34, 8,10-dichloro-4-(2,3-dihydro-5-benzofuranyl)-5,6-dihydro-4H-pyrrolo[1,2-a][1,4]-benzodiazepine .HCl]	<4.19	5.70	<4.19	<4.19	5.52	5.70	4.96	–	–	–	–	–	–	–
Fc1cccc2c1CN=C(c1ccc3c(c1)CCCO3)c1cccn1-2 [Compound 40, 4-(3,4-dihydro-2H-1-benzopyran-6-yl)-7-fluoro-6H-pyrrolo[1,2-a][1,4]benzo-diazepine]	5.56	<4.19	<4.19	<4.19	5.87	4.49	<4.19	–	–	–	–	–	–	–
Clc1ccc2c(c1)-n1cccc1C(c1ccc3c(c1)CCOC3)=NC2 [Compound 41, 9-chloro-4-(3,4-dihydro-1H-2-benzopyran-6-yl)-6H-pyrrolo[1,2-a][1,4]benzo-diazepine]	5.60	<4.19	<4.19	<4.19	4.52	4.48	4.49	–	–	–	–	–	–	–
Clc1ccc2c(c1)-n1cccc1C(c1ccc3c(c1)CCCO3)=NC2 [Compound 42, 9-chloro-4-(3,4-dihydro-2H-1-benzopyran-6-yl)-6H-pyrrolo[1,2-a][1,4]benzo-diazepine]	5.63	<4.19	<4.19	5.10	6.82	4.49	<4.19	–	–	–	–	–	–	–
Clc1ccc2c(c1Cl)CN=C(c1ccc3c(c1)CCO3)c1cccn1-2 [Compound 44, 7,8-dichloro-4-(2,3-dihydro-5-benzofuranyl)-6H-pyrrolo[1,2-a][1,4]benzodiazepine]	–	–	–	–	–	–	–	12	5.01	> 64.6	5.01	7.08	5.01	7.94
Fc1cc(F)c2c(c1)-n1cccc1C(c1ccc3c(c1)CCCO3)=NC2 [Compound 46, 4-(3,4-dihydro-2H-1-benzopyran-6-yl)-7,9-difluoro-6H-pyrrolo[1,2-a][1,4]benzo-diazepine]	5.79	4.44	4.49	4.49	5.49	4.48	<4.19	–	–	–	–	–	–	–
Clc1ccc(Cl)c2c1CN=C(c1ccc3c(c1)OCC3)c1cccn1-2 [Compound 47, 7,10-dichloro-4-(2,3-dihydro-6-benzofuranyl)-6H-pyrrolo[1,2-a][1,4]benzo-diazepine]	<4.19	5.92	<4.19	<4.19	<4.19	5.40	<4.19	–	–	–	–	–	–	–
Br.CCOc1cc2c(cc1C1NCc3c(Cl)cccc3-n3cccc31)OC(C)C2 (stereo not shown) [Compound 50, 7-chloro-4-(5-ethoxy-2,3-dihydro-2-methyl-6-benzofuranyl)-5,6-dihydro-4H-pyrrolo[1,2-a][1,4]benzodiazepine .HBr]	<4.19	5.52	<4.19	<4.19	4.74	4.92	<4.19	–	–	–	–	–	–	–
Cl.O=C1CCc2ccc(C3NCc4c(Cl)cccc4-n4cccc43)cc21 (stereo not shown) [Compound 52, 6-(7-chloro-5,6-dihydro-4H-pyrrolo[1,2-a][1,4]benzodiazepin-4-yl)-2,3-dihydro-1H-inden-1-one .HCl]	<4.19	4.55	<4.19	<4.19	<4.19	<4.80	4.31	–	–	–	–	–	–	–
Cl.Fc1cccc2c1CNC(c1ccc3c(c1)CCC(F)(F)O3)c1cccn1-2 (stereo not shown) [Compound 53, 4-(2,2-difluoro-3,4-dihydro-2H-1-benzopyran-6-yl)-7-fluoro-5,6-dihydro-4H-pyrrolo[1,2-a][1,4]benzodiazepine .HCl]	<4.19	4.50	4.97	<4.19	4.87	4.49	4.49	–	–	–	–	–	–	–
Cl.Fc1cc(F)c2c(c1)-n1cccc1C(c1ccc3c(c1)CCC(F)(F)O3)NC2 (stereo not shown) [Compound 54, 4-(2,2-difluoro-3,4-dihydro-2H-1-benzopyran-6-yl)-7,9-difluoro-5,6-dihydro-4H-pyrrolo[1,2-a][1,4]benzodiazepine .HCl]	<4.19	5.10	<4.19	<4.19	5.11	5.09	4.49	–	–	–	–	–	–	–
